Legend:
Vasopressin V2 [1] = target: T1, Vasopressin V2 (Rattus norvegicus, UniProt Q00788); assay: Vasopressin V2 agonist effects in normal conscious homozygous Brattleboro rats with central diabetes insipidus; assay type: in vivo; set-up: from tissue; host or cells: whole living homozygous Brattleboro rat; the receptor is the animal's own; conditions: Brattleboro (BB) rats, 10 mg/kg oral; for Osmolality (% Increase): change in osmolality as percent of control; for Urine Volume (% decrease): vs. control, urine collected six hours
T1 sequence (Q00788 whole entry): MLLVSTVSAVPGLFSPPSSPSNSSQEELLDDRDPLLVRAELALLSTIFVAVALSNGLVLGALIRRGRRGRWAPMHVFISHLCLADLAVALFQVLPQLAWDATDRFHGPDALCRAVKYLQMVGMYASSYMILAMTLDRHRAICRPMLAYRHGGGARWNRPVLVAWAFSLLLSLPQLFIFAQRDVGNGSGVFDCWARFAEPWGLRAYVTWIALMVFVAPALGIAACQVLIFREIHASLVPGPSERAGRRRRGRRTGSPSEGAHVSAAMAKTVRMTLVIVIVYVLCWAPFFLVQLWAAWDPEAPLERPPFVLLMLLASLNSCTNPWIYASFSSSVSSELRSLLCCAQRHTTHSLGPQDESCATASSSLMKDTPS
Excerpt: Vasopressin V2 Agonist Effects of Test Compounds in Normal Conscious Homozygous Brattleboro Rats with Central Diabetes Insipidus
Male or female homozygous Brattleboro rats (Harlan Sprague Dawley, Inc., Indianapolis, Ind.) of 250-350 g body weight were supplied with standard rodent diet (Purina Rodent Lab. Chow 5001) and water ad libitum. On the day of test, rats were placed individually into metabolic cages equipped with devices to separate the feces from the urine and containers for collection of urine. Test compound or reference agent was given at an oral dose of 1 to 10 mg/kg in a volume of 10 ml/kg. The vehicle used was 20% dimethylsulfoxide (DMSO) in 2.5% preboiled corn starch. During the test, rats were provided with water ad libitum. Urine was collected for six hours after dosing of the test compound. At the end of six hours, urine volume was measured. Urinary osmolality was determined using a Fiske One-Ten Osmometer (Fiske Associates, Norwood, Mass., 02062) or an Advanced CRYOMATIC Osmometer, Model 3C2 (Advanced Instruments, Norwood, Mass.). Determinations of Na^+, K^+ and Cl^− ion were carried out using ion specific electrodes in a Beckman SYNCHRON EL-ISE Electrolyte System analyzer. This animal model was mainly used for evaluation of potency and duration of action of the active compounds.

Vasopressin V2 [2] = target: T1, Vasopressin V2; assay: Vasopressin V2 agonist effects in normal conscious water-loaded rats; assay type: in vivo; set-up: from tissue; host or cells: whole living Sprague-Dawley rat; the receptor is the animal's own (renal, by own knowledge); conditions: Sprague-Dawley (CD) rats, 10 mg/kg oral; for Osmolality (% Increase): change in osmolality as percent of control; for Urine Volume (% decrease): vs. control, urine collected four hours
Summary of the method: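 Sprague-Dawley rats (350-500 g, either sex) dosed orally at 10 mg/kg in 20% DMSO/2.5% corn starch, then water-loaded by gavage (30 ml/kg) 30 min later. Urine was collected for 4 h post-dose without food or water. Endpoints were volume, osmolality and Na+, K+, Cl−, with two to three rats per compound.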

Row | Osmolality (% Increase) (Vasopressin V2 [1]) [%] | Urine Volume (% decrease) (Vasopressin V2 [1]) [%] | melting point | Osmolality (% Increase) (Vasopressin V2 [2]) [%] | Urine Volume (% decrease) (Vasopressin V2 [2]) [%] | Compound
1 | 334 | 81 |  |  |  | CC(=O)n1ccc(-c2ccc(C(=O)N3Cc4cccn4Cc4ccccc43)cc2)n1 [Example 30, 1-{3-[4-(5H,11H-Pyrrolo[2,1-c][1,4]benzodiazepine-10-carbonyl)-phenyl]-pyrazol-1-yl}-ethanone]
2 |  |  | 193 to 195 °C |  | 72 | Cc1nc(-c2ccc(C(=O)N3Cc4cccn4Cc4ccccc43)cc2)n(C)n1 [Example 51, [4-(2,5-Dimethyl-2H-[1,2,4]triazol-3-yl)-phenyl]-(5H,11H-pyrrolo[2,1-c]-[1,4]benzodiazepin-10-yl)-methanone]
3 | 221 | 74 | 155 to 158 °C |  |  | Cn1ncnc1-c1ccc(C(=O)N2Cc3cccn3Cc3ccccc32)cc1 [Example 49, [4-(2-Methyl-2H-[1,2,4]triazol-3-yl)-phenyl]-(5H,11H-pyrrolo[2,1-c][1,4]-benzodiazepin-10-yl)-methanone]
4 |  |  | 179 to 181 °C | 165 | 54 | Cc1cnn(-c2ccc(C(=O)N3Cc4cccn4Cc4ccccc43)cc2)c1 [Example 60, [4-(4-Methyl-pyrazol-1-yl)-phenyl]-(5H,11H-pyrrolo[2,1-c][1,4]-benzodiazepin-10-yl)-methanone]
5 |  |  | 105 to 110 °C | 362 | 68 | CCCC(=O)n1ccc(-c2ccc(C(=O)N3Cc4cccn4Cc4ccccc43)cc2)n1 [Example 33, 1-{3-[4-(5H,11H-Pyrrolo[2,1-c][1,4]benzodiazepine-10-carbonyl)-phenyl]-pyrazol-1-yl}-butan-1-one]
6 |  |  | 177 to 179 °C | 261 | 66 | Cc1noc(-c2ccc(C(=O)N3Cc4cccn4Cc4ccccc43)cc2)n1 [Example 52, [4-(3-Methyl[1,2,4]oxadiazol-5-yl)-phenyl]-(5H,11H-pyrrolo-[2,1-c][1,4]-benzodiazepin-10-yl)-methanone]

The next lines start with the compound.

Row | Compound | Osmolality (% Increase) (Vasopressin V2 [1]) [%] | Urine Volume (% decrease) (Vasopressin V2 [1]) [%] | melting point | Osmolality (% Increase) (Vasopressin V2 [2]) [%] | Urine Volume (% decrease) (Vasopressin V2 [2]) [%]
7 | Cc1ccccc1C(=O)n1ccc(-c2ccc(C(=O)N3Cc4cccn4Cc4ccccc43)cc2)n1 [Example 36, {4-[1-(2-Methyl-benzoyl)-1H-pyrazol-3-yl]-phenyl}-(5H,11H-pyrrolo[2,1-c][1,4]benzodiazepin-10-yl)-methanone] | 164 | 66 | 170 to 173 °C |  | 
8 | O=C(O)c1ccc(C(=O)N2Cc3cccn3Cc3ccccc32)c(Cl)c1 [Example 78, 3-Chloro-4-(5H,11H-Pyrrolo[2,1-c][1,4]benzodiazepine-10-carbonyl)-benzoic Acid] |  |  | 198 to 199 °C | 115 | 21
9 | Cc1ccn(-c2ccc(C(=O)N3Cc4ccc(Br)n4Cc4ccccc43)c(Cl)c2)n1 [Example 88, (3-Bromo-5H,11H-pyrrolo[2,1-c][1,4]benzodiazepin-10-yl)-[2-chloro-4-(3-methyl-pyrazol-1-yl)-phenyl]-methanone] |  |  | 148 to 149 °C (dec.) | 226 | 68
10 | O=C(c1ccc(-c2ncn[nH]2)cc1Cl)N1Cc2cccn2Cc2ccccc21 [Example 83, [2-Chloro-4-(2H-1,2,4-triazol-3-yl)-phenyl]-(5H,11H-pyrrolo[2,1-c][1,4]-benzodiazepin-10-yl)-methanone] |  |  | 174 to 177 °C | 442 | 85
11 | O=C(c1ccc(-c2ccn(C(=O)c3cccs3)n2)cc1)N1Cc2cccn2Cc2ccccc21 [Example 34, (5H,11-Pyrrolo[2,1-c][1,4]benzodiazepin-10-yl)-{4-[1-(thiophene-2-carbonyl)-1H-pyrazoly-3-yl]phenyl}-methanone] | 407 | 76 |  |  | 
12 | O=C(c1ccc(-c2ccn(C(=O)c3ccc(Cl)cc3Cl)n2)cc1)N1Cc2cccn2Cc2ccccc21 [Example 38, {4-[1-(2,4-Dichloro-benzoyl)-1H-pyrazol-3-yl]-phenyl}-(5H,11H-pyrrolo[2,1-c][1,4]benzodiazepin-10-yl)-methanone] | 256 | 66 | 180 to 182 °C |  | 
13 | Cc1cnn(-c2ccc(C(=O)N3Cc4cccn4Cc4ccccc43)c(Cl)n2)c1 [Example 101, [2-Chloro-6-(4-methylpyrazol-1-yl)-pyridin-3-yl](5H,11H-pyrrolo[2,1-c][1,4]benzodiazepin-10-yl)-methanone] |  |  | 155 to 156 °C | 376 | 76
14 | NC(=O)c1ccc(C(=O)N2Cc3cccn3Cc3ccccc32)c(Cl)c1 [Example 79, 3-Chloro-4-(5H,11H-pyrrolo[2,1-c][1,4]benzodiazepine-10-carbonyl)-benzamide] |  |  | 211 to 212 °C | 123 | 38
15 | O=C(c1ccc(-n2cccn2)nc1Cl)N1Cc2cccn2Cc2ccccc21 [Example 99, (2-Chloro-6-pyrazol-1-yl-pyridin-3-yl)-(5H,11H-pyrrolo[2,1-c][1,4]benzodiazepin-10-yl)-methanone] |  |  | 133 to 135 °C | 205 | 43
16 | O=C(c1ccc(-c2ccn(C(=O)c3ccc(F)cc3Cl)n2)cc1)N1Cc2cccn2Cc2ccccc21 [Example 37, {4-[1-(2-Chloro-4-fluoro-benzoyl)-1H-pyrazol-3-yl]-phenyl}-(5H,11H-pyrrolo[2,1-c][1,4]benzodiazepin-10-yl}methanone] |  |  | 150 to 157 °C | 370 | 71

— patent publication US6831079B1, “Vasopressin agonist formulation and process” (American Cyanamid Company, priority 1999, dated 2004)
